A short description of data set [1]: In vitro degradation in cytosolic S10 HeLa cell extract. Type of data set: in vitro ADME. Particulars: human, cytosolic S10 HeLa cell extract; 100 ng sp6, 5 μg S10 extract from HeLa cells, 37°C; Western blot (anti-p6), quantified; estimated from exponential decay; mean of 4 independent experiments. How it is done:
(§1) For generation of S10, confluent dishes with HeLa cells were extensively washed and subsequently lysed with a modified S10 buffer (250 mM sucrose, 80 mM KCl, 10 mM Tris pH 7.6, 0.1% (v/v) Triton X-100 [91]). Debris and nuclei were removed by centrifugation at 10.000 × g for 10 min. Protein content was determined by BCA-Assay (Pierce) and aliquots stored at -80°C.
(§2) Typically 5 μg S10 were incubated with inhibitor or buffer and 20–100 ng sp6 at 37°C for 30 min. Reactions were stopped by addition of sample buffer and incubation at 95°C for 5 min. Remaining p6 was detected by Western blotting using an anti-p6 rabbit antiserum. Alternatively, 10 ng of BODIPY FL-labeled sp6 (sp6BY) were used as substrate and detected directly in the polyacrylamide gel by fluorescence scanning. In some experiments the amount of p6 was densitometrically quantified with the software AIDA (Raytest). For the in vitro degradation of amyloid-β 10 ng of Aβ-FITC (abcam) were used analogously to sp6BY. For the in vitro degradation of viral p6, VLPs were pelleted and lysed in IDE enzyme buffer (150 mM NaCl, 50 mM Tris pH 7.4, 0.5% (v/v) Triton X-100). The p6 content was estimated by Western blotting using a dilution series of sp6 with known concentrations. Equivalents of 15 ng were used for digestion experiments and subsequently detected by Western blotting. Experiments carried out with recombinant IDE (Calbiochem) were performed in IDE enzyme buffer. Recombinant FITC-labeled insulin was purchased from Sigma.

Data set [2] concerns the target T1, insulin-degrading enzyme (IDE) (Homo sapiens, UniProt P14735).
T1 construct: endogenous in cells; host or cells: HeLa cells (cytosolic S10 extract)
Description: Inhibition of / competition with sp6 or sp6BY degradation in S10 extract. Type of data set: biochemical. Particulars: 10 ng sp6BY, 5 μg S10 extract, 30 min, 37°C; fluorescence; mean of at least three independent experiments. How it is done: as §1
as §2, with “Reactions” for “Typically 5 μg S10 were incubated with inhibitor or buffer and 20–100 ng sp6 at 37°C for 30 min. Reactions”, “buffer.” for “buffer. Recombinant FITC-labeled insulin was purchased from Sigma.”
Bestatin, Chymostatin, E-64, Leupeptin, Pepstatin, Phosphoramidon, Pefabloc SC, EDTA, Aprotinin, Antipain were purchased from Roche as part of a protease inhibitors set and used at the following concentrations: 74 μM Antipain; 130 μM Bestatin; 100 μM Chymostatin; 28 μM E-64; 1 μM Leupeptin; 1 μM Pepstatin; 600 nM Phosphoramidon; 4 mM Pefabloc SC; 1.3 mM EDTA; […]. […] (Phoenix Pharmaceuticals and Tocris), TPEN (Calbiochem), and NEM (Roche) were purchased from companies indicated.

Data set [3] concerns the target T1, insulin-degrading enzyme (IDE). The data set can be described thus: Inhibition of Aβ-FITC degradation in S10 extract. Type of data set: biochemical. Particulars: 10 ng FITC-labeled Aβ 1–40, 5 μg S10, 45 min, 37°C; fluorescence; four independent experiments. How it is done:
as §2, with “Typically 5 μg S10 were incubated with inhibitor or buffer and 20–100 ng sp6 at 37°C for 30 min.” left out
Supplementary file pone.0174254.s003.tif: S3 Fig p6 competes with the in vitro degradation of Aβ. […] Aβ-FITC was detected by measurement of fluorescence excitation. The band marked with * represents Aβ-oligomers and has been described earlier. (B) Band intensities were quantified for four independent experiments and values represent the arithmetic mean ± SD. […]

For another data set, the target named is T2, recombinant IDE (rIDE) (Rattus norvegicus, UniProt P35559).
T2 construct: purchased Calbiochem
Description: In vitro degradation by recombinant IDE (extent, kinetics, cleavage sites). Type of data set: biochemical. Particulars: 10 ng rIDE, 30 min, 37°C, IDE enzyme buffer; 10 ng sp6BY (fluorescence) or VLP/virion lysate (Western blot). How it is done: (A) 10 ng of sp6BY or insulin-FITC were incubated with indicated amounts of rIDE for 30 min at 37°C. Remaining amounts of sp6BY and insulin-FITC were detected by measurement of fluorescence excitation. (B) Results of four independently performed experiments. Values represent the arithmetic mean ± SD. (C) Increasing concentrations of sp6BY were incubated with rIDE for 10 min at 37°C. The velocities were calculated from the degradation of sp6BY and normalized for the amount of rIDE. Data points represent values from three independent experiments in a double-reciprocal Lineweaver-Burk plot.
Fig 8 Generation of stable p6 mutants. […] Reactions were stopped by adjusting the samples to 0.3% (w/v) […] and subsequently analyzed by mass spectrometry. Arrows above the primary sequence represent the detected cleavage sites, and initial and secondary cleavage sites are indicated as big or small arrows, respectively. […] (C) 10 ng of sp6BY were incubated with 250 μg/ml sp6 wt, 2xPTAPPA, 3xPTAPPA or only buffer and 5 μg S10 for 30 min at 37°C. sp6BY was detected by fluorescence emission and quantified. […]
Typically 5 μg S10 were incubated with inhibitor or buffer and 20–100 ng sp6 at 37°C for 30 min. […] Remaining p6 was detected by Western blotting using an anti-p6 rabbit antiserum. […] In some experiments the amount of p6 was densitometrically quantified with the software AIDA (Raytest). […]
In general terms: A western blot detects proteins with antibodies after separation by electrophoresis.

Data set [4] has as its system IDE (S10 extract or rIDE). Type of data set: in vitro ADME. Particulars: 20 ng sp6 or 30 ng vp6 with 5 μg S10 extract or 2 ng rIDE, up to 60 min; Western blot densitometry; at least 3 independent experiments per setting; value depends on the experimental setting. How it is done: Fig 9 Multiplication of PTAPPA-motifs stabilizes p6. 20 ng of sp6 or 30 ng of vp6 were incubated either with 5 μg S10 extract (A/B/C) or 2 ng of rIDE (D) for up to 60 min. Degradation efficiency was quantified via densitometric analyses of Western blots. Values represent the arithmetic mean ± SD of at least 3 independent experiments for each setting.
as §2, with “Experiments carried out with recombinant IDE (Calbiochem) were performed in IDE enzyme buffer. Recombinant FITC-labeled insulin was purchased from Sigma.” left out

The structures appear in SMILES notation. pIC50: −log10 of the molar value.

T1 sequence (P14735 whole entry): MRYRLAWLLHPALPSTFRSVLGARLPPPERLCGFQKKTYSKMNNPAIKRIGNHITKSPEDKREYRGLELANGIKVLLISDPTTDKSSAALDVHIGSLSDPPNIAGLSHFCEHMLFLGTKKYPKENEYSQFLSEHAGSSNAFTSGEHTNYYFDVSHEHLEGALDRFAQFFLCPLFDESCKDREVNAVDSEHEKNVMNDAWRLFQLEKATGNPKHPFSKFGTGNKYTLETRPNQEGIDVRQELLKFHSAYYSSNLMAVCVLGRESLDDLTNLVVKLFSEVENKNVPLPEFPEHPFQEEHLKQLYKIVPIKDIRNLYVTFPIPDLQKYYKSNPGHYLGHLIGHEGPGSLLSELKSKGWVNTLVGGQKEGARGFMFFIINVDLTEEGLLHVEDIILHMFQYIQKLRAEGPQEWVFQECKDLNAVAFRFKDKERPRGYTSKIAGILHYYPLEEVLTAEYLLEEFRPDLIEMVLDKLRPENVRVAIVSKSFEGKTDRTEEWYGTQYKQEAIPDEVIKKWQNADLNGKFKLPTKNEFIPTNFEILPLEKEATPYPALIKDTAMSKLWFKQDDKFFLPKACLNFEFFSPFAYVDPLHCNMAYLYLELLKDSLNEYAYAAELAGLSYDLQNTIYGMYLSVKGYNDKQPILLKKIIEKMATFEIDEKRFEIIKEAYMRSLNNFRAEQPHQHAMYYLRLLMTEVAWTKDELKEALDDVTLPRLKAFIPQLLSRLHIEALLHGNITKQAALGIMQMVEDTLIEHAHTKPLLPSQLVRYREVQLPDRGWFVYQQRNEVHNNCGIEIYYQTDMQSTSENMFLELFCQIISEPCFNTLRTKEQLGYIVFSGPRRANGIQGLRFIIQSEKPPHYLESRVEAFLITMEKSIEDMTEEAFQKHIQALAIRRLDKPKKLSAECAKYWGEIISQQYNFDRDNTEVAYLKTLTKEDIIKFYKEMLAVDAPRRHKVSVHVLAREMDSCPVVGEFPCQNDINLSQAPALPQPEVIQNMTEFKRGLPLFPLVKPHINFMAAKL
T2 sequence (P35559 whole entry): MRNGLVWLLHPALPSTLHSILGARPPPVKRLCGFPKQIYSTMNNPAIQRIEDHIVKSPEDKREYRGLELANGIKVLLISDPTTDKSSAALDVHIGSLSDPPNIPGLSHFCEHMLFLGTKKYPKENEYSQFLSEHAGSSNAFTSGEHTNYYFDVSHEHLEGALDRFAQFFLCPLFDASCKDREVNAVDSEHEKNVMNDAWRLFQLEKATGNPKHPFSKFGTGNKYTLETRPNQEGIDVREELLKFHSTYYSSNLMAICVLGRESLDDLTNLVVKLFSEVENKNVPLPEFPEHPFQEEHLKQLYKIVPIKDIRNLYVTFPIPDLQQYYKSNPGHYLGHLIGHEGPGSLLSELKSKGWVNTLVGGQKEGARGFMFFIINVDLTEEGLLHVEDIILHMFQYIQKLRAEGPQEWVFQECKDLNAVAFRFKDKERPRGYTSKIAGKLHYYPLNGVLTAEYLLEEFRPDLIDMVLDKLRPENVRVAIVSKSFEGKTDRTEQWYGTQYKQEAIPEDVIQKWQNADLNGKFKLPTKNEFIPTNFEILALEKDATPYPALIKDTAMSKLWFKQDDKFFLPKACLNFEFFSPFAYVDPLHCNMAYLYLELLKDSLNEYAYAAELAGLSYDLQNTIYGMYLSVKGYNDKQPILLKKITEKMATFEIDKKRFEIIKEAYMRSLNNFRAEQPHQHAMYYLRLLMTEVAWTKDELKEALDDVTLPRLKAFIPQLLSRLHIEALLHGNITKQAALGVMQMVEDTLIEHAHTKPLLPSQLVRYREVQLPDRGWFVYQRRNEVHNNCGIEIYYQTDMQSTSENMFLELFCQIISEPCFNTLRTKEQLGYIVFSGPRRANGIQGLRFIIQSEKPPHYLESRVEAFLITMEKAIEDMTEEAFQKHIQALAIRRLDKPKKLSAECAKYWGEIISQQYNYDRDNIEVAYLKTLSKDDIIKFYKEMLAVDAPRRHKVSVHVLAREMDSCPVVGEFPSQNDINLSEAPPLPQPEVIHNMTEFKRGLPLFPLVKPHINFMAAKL

Broadly, the half-life is the time needed for the level to fall by half in the phase considered. In general, pIC50 refers to −log10 of the IC50, conventionally taken in molar units. Read a low pIC50 as a large IC50. Regarding `CC[C@H](C)[C@H](NC(=O)[C@@H]1CCCN1C(=O)[C@H](CCC(=O)O)NC(=O)[C@H](CCC(N)=O)NC(=O)[C@H](CCCCN)NC(=O)[C@H](CCC(N)=O)NC(=O)[C@H](CO)NC(=O)[C@@H]1CCCN1C(=O)[C@@H](NC(=O)[C@@H](NC(=O)[C@@H](NC(=O)[C@H](CCC(=O)O)NC(=O)[C@H](CCC(=O)O)NC(=O)CNC(=O)[C@H](Cc1ccccc1)NC(=O)[C@H](CCCNC(=N)N)NC(=O)[C@H](Cc1ccccc1)NC(=O)[C@H](CO)NC(=O)[C@H](CCC(=O)O)NC(=O)[C@H](CCC(=O)O)NC(=O)[C@@H]1CCCN1C(=O)[C@@H]1CCCN1C(=O)[C@H](C)NC(=O)[C@@H](NC(=O)[C@@H]1CCCN1C(=O)[C@H](CCC(=O)O)NC(=O)[C@@H]1CCCN1C(=O)[C@H](CCCNC(=N)N)NC(=O)[C@H](CO)NC(=O)[C@H](CCC(N)=O)NC(=O)[C@@H](N)CC(C)C)[C@@H](C)O)[C@@H](C)O)[C@@H](C)O)[C@@H](C)O)C(=O)N[C@@H](CC(=O)O)C(=O)N[C@@H](CCCCN)C(=O)N[C@@H](CCC(=O)O)C(=O)N[C@@H](CC(C)C)C(=O)N[C@@H](Cc1ccc(O)cc1)C(=O)N1CCC[C@H]1C(=O)N[C@@H](CC(C)C)C(=O)N[C@@H](C)C(=O)N[C@@H](CO)C(=O)N[C@@H](CC(C)C)C(=O)N[C@@H](CCCNC(=N)N)C(=O)N[C@@H](CO)C(=O)N[C@@H](CC(C)C)C(=O)N[C@@H](Cc1ccccc1)C(=O)NCC(=O)N[C@@H](CO)C(=O)N[C@@H](CC(=O)O)C(=O)N1CCC[C@H]1C(=O)N[C@@H](CO)C(=O)N[C@@H](CO)C(=O)N[C@@H](CCC(N)=O)C(=O)O` [sp6], in data set [1], the half-life was about 10 min. The pIC50 is about 4.52 in data set [2] and 4.86 in data set [3]. Besides, at recombinant IDE (rIDE), the “degradation by recombinant IDE” value is listed as “degraded by recombinant IDE”.

As for `CC[C@H](C)[C@H](NC(=O)[C@@H]1CCCN1C(=O)[C@H](CCC(=O)O)NC(=O)[C@H](CCC(N)=O)NC(=O)[C@H](CCCCN)NC(=O)[C@H](CCC(N)=O)NC(=O)[C@H](CO)NC(=O)[C@@H]1CCCN1C(=O)[C@@H](NC(=O)[C@@H](NC(=O)[C@@H](NC(=O)[C@H](CCC(=O)O)NC(=O)[C@H](CCC(=O)O)NC(=O)CNC(=O)[C@H](Cc1ccccc1)NC(=O)[C@H](CCCNC(=N)N)NC(=O)[C@H](Cc1ccccc1)NC(=O)[C@H](CO)NC(=O)[C@H](CCC(=O)O)NC(=O)[C@H](C)NC(=O)[C@@H]1CCCN1C(=O)[C@@H]1CCCN1C(=O)[C@H](C)NC(=O)[C@@H](NC(=O)[C@@H]1CCCN1C(=O)[C@H](C)NC(=O)[C@@H]1CCCN1C(=O)[C@@H]1CCCN1C(=O)[C@H](C)NC(=O)[C@@H](NC(=O)[C@@H]1CCCN1C(=O)[C@H](CCC(=O)O)NC(=O)[C@@H]1CCCN1C(=O)[C@H](CCCNC(=N)N)NC(=O)[C@H](CO)NC(=O)[C@H](CCC(N)=O)NC(=O)[C@@H](N)CC(C)C)[C@@H](C)O)[C@@H](C)O)[C@@H](C)O)[C@@H](C)O)[C@@H](C)O)C(=O)N[C@@H](CC(=O)O)C(=O)N[C@@H](CCCCN)C(=O)N[C@@H](CCC(=O)O)C(=O)N[C@@H](CC(C)C)C(=O)N[C@@H](Cc1ccc(O)cc1)C(=O)N1CCC[C@H]1C(=O)N[C@@H](CC(C)C)C(=O)N[C@@H](C)C(=O)N[C@@H](CO)C(=O)N[C@@H](CC(C)C)C(=O)N[C@@H](CCCNC(=N)N)C(=O)N[C@@H](CO)C(=O)N[C@@H](CC(C)C)C(=O)N[C@@H](Cc1ccccc1)C(=O)NCC(=O)N[C@@H](CO)C(=O)N[C@@H](CC(=O)O)C(=O)N1CCC[C@H]1C(=O)N[C@@H](CO)C(=O)N[C@@H](CO)C(=O)N[C@@H](CCC(N)=O)C(=O)O` [2x], in data set [4], the “half-life in in vitro degradation assays” value is listed as “up to 30 min”.

Source of the values: PMC5384750 (PLoS ONE, 2017).
